Data from patent publication US20060188904A1, “Biosensors having single reactant components immobilized over single electrodes and methods of making and using thereof” (The Regents of the University of California, priority 2003, published 2006).
Values joined by “and” are separate entries in the source; they are usually repeats but may differ in a detail not shown here. Equal entries are not always repeated.

Assays:
single neuron [1] = details: estimated theoretically, literature; cited from earlier work
rat osteoblasts = experiment: Single osteoblast sensor: response time to chemical analytes; assay type: cell-based; details: at the concentration printed under each value (EDTA 280 ppm, ethanol 190 ppm, peroxide 25 ppm, pyrethroids 890 ppm), preliminary results
Description: The experiments in Example 2 were conducted on mammalian cells, rat osteoblasts and neurons (18 day embryonic Wistar rat) having highly excitable cell membranes. […] A unique response of each cell type to each agent was determined. […] Here, two out of four agents are discussed. Additionally, the response of each cell type to a mixture of the four agents was determined in order to simulate the real time field conditions. The results obtained for neurons are discussed.
(§1) For example, for the experiments described herein, an experimental platform comprising a 5×5 electrode array on a substrate, a silicone chamber, and a measurement system was used. The micrograph of the fabricated electrode array on a substrate is shown in FIG. 1 with a 5×5 platinum electrode array pattern, electrode diameter of 80 μm and with a 200 μm center to center spacing. Two platinum plated leads (6 μm, thick) from each electrode terminated at two separate electrode pads. The dimensions of the electrode pads were 100 μm×120 μm. The electrode array on the substrate was coated with a permeation polyethylamine (PEI) and collagen with a volume of 200 μl (PEI, 1 mg/ml, Collagen 1X, Sigma, St. Louis, Mo.). The electrode array on the substrate with the aqueous coating of the permeation layer was incubated for about 12 hours prior to the experiment at 37 ° C. and 5% CO2.
The cells were separated and positioned over the electrodes by setting up a gradient AC field using an extracellular positioning system, comprising of a pulse generator and micromanipulators. The AC signal from the pulse generator was fed to the electrode pads of the selected electrodes using the micromanipulators. The extracellular recordings from the cells were amplified and recorded on an oscilloscope. […]
Then fast Fourier transformation (FFT) and wavelet transformation (WT) analysis were used to extract important information from the extracellular action potential (AP) for the neurons. […] Quantitative dose response curves and response times were also obtained for the single cell systems.

single neuron [2] = experiment: Single neuron sensor: extracellular electrical response to chemical analytes (FFT/WT analysis, signature pattern vector); details: for Percentage reduction of signal amplitudes from the detection limit to the peak concentration: 5000 ppm to detection limit; for Percentage increase in response time from peak concentration to the sensitivity limits: about 5000 ppm to detection limit; for Response time of a single neuron extracted via WT analysis: at the detection limit; for Detection limit for a single neuron: decrementing concentrations from about 5000 ppm; for Experimentally obtained detection limit (molar): single neuron
Description: The experiments in Example 2 were conducted on mammalian cells, rat osteoblasts and neurons (18 day embryonic Wistar rat) having highly excitable cell membranes. […] A unique response of each cell type to each agent was determined. […] Additionally, the response of each cell type to a mixture of the four agents was determined in order to simulate the real time field conditions.
as §1
The cells were separated and positioned over the electrodes by setting up a gradient AC field using an extracellular positioning system, comprising of a pulse generator and micromanipulators. The AC signal from the pulse generator was fed to the electrode pads of the selected electrodes using the micromanipulators. The extracellular recordings from the cells were amplified and recorded on an oscilloscope. The supply and measurement systems are integrated using general-purpose interface bus (GPIB) control and controlled through LabVIEW (National Instruments, Austin, Tex.).
Then fast Fourier transformation (FFT) and wavelet transformation (WT) analysis were used to extract important information from the extracellular action potential (AP) for the neurons. Specific spectrum power vectors (SSPVs) and the relative spectrum power values (RSPVS) were found for osteoblast. Quantitative dose response curves and response times were also obtained for the single cell systems.
Extracellular signals from individual neurons due to the action of a specific chemical analyte may be analyzed further to understand the chemical type and the cellular response relationship. Here, single neuron based sensor's response and its sensitivity is determined by statistical reconstruction and enhancement of the acquired experimental data. Each chemical was characterized by a unique SPV obtained from the integrated processing of the modified extracellular action potential in the frequency domain (FFT) as well as the time domain (WT).
Integrated signal processing yielded an SPV specific to every chemical analyte. The SPV provides unique functional data corresponding to the physiological state of a single neuron due to the action of a particular analyte at a specific concentration. Each SPV comprises of certain frequency states, which are analyte specific and having maximum relative amplitudes that are generated concurrently in the sensing cycle; these correspond to the neuron's modified stable burst rate. Extracellular signal amplitudes greater than about 50 μV are considered to be accurate measures of the cell response due to a specific chemical analyte as the magnitude of signals due to non-specific interactions and noise signals are smaller than this value.

single neuron [3] = details: hydrogen peroxide added after ethanol, both at their detection limits
Excerpt: The detection limits for individual chemicals act as the basis for determining the concentration of the specific chemical analytes used in cascaded sensing. Addition of the first chemical analyte approaching its sensitivity limit results in the acquisition of modified extracellular potential pertaining to the specific chemical analyte. The use of the chemical analyte close to its detection limit leads to the dissipation as well as metabolization of the chemical analyte within a single sensing cycle (180 seconds) that result in the reduction of the chemical analyte concentration below the detection threshold. […] Administration of the second chemical analyte results in a specific modification based on the latter.
The concentrations of the chemicals used were at their detection limits.

SMILES: CCO [ethanol]
- Lowest single neuron sensitivity, lowest concentration determined by existing methods (single neuron [1]): about 25 μM
- Response time of osteoblast cells (rat osteoblasts): 0.71 sec per
- Percentage reduction of signal amplitudes from the detection limit to the peak concentration (single neuron [2]; n=15): about 52%
- Percentage increase in response time from peak concentration to the sensitivity limits (single neuron [2]; n=15): about 1.6%
- Response time of a single neuron extracted via WT analysis (single neuron [2]; n=15): about 0.21 second
- Eigen vectors of the SPV / modified firing frequency (Example 2) (single neuron [2]; control burst rate 626 Hz, unchanged for varying concentrations, n=15): 314 Hz
- Detection limit for a single neuron (single neuron [2]; n=15): about 9 ppm
- Frequency of firing of the neuron / eigen values of the SPV (description of FIGS. 4-7) (single neuron [2]; low and high frequency modes, hydrogen peroxide within 30 seconds of addition): 315 Hz and 627 Hz and 314 Hz and 626 Hz
- Percentage reduction of signal amplitude per 1000 ppm (single neuron [2]; n=15): about 8.2%±0.12%
- Experimentally obtained detection limit (molar) (single neuron [2]): about 2.17×10^−12 M

SMILES: OO [hydrogen peroxide]
- Lowest single neuron sensitivity, lowest concentration determined by existing methods (single neuron [1]): about 15 nM
- Response time of osteoblast cells (rat osteoblasts): 0.42 sec per
- Percentage reduction of signal amplitudes from the detection limit to the peak concentration (single neuron [2]; n=15): about 38%
- Percentage increase in response time from peak concentration to the sensitivity limits (single neuron [2]; n=15): about 1.8%
- Response time of a single neuron extracted via WT analysis (single neuron [2]; n=15): about 0.07 second
- Detection limit for a single neuron (single neuron [2]; n=15): about 19 ppm
- Percentage reduction of signal amplitude per 1000 ppm (single neuron [2]; n=15): about 7.8%±0.14%
- Experimentally obtained detection limit (molar) (single neuron [2]): about 2.94×10^−12 M
- High frequency eigen vector after cascaded addition (single neuron [3]): 775 Hz

SMILES: O=C(O)CN(CCN(CC(=O)O)CC(=O)O)CC(=O)O [EDTA, ethylenediaminetetraacetic acid]
- Lowest single neuron sensitivity, lowest concentration determined by existing methods (single neuron [1]): about 15 pM
- Response time of osteoblast cells (rat osteoblasts): 0.14 sec per
- Percentage reduction of signal amplitudes from the detection limit to the peak concentration (single neuron [2]; n=15): about 67%
- Percentage increase in response time from peak concentration to the sensitivity limits (single neuron [2]; n=15): about 1.8%
- Response time of a single neuron extracted via WT analysis (single neuron [2]; n=15): about 0.27 second
- Detection limit for a single neuron (single neuron [2]; n=15): about 180 ppm
- Percentage reduction of signal amplitude per 1000 ppm (single neuron [2]; n=15): about 10.4%±0.11%
- Experimentally obtained detection limit (molar) (single neuron [2]): about 3.42×10^−13 M
